These results are taken from US11969465B2, “Toxoplasma gondii vaccines and their use” (Alpha-O Peptides AG, priority 2016, dated 2024).

Experiment [1] relates to PBMC from T. gondii-seropositive HLA-A03 individuals. As to the kind of experiment: IFN-γ ELISpot assay with human PBMC. Format: cell-based. As to conditions: for IFN-γ-secreting spot formation: PBMC from Toxoplasma seropositive HLA-A03 individuals, compared to an irrelevant HLA-A*1101-restricted peptide. As to the method: To determine which of these peptides would be recognized in the context of Toxoplasma infection, peripheral blood mononuclear cells (PBMC) from T. gondii-seropositive HLA-A03 individuals were tested for response to these peptides in pools or individually by using an IFN-γ ELISpot assay. Candidate peptides were considered immunogenic if they induced IFN-γ-secreting spot formation that was significant compared to an irrelevant HLA-A*1101-restricted peptide.
The epitopes were linked together with N/K alanines or GPGPG (SEQ ID NO: 23) as linker, named as LO and AZ, respectively (FIG. 3A-B). […] Immunogenicity of the two proteins compared to the pool of the 5 individual A11-restricted CD8^+ T cell epitope peptides was tested in vitro.
PBMC were obtained from individuals seropositive to T. gondii, and their HLA haplotype was determined.

For experiment [2], the target named is T1, TLR5 (Homo sapiens, UniProt O60602).
T1 construct: expressed in transfected cells; host or cells: HEK 293 (stably co-transfected with TLR5 and NF-kB-driven SEAP reporter)
The experiment is classed as cell-based. As to conditions: for TLR5 activity (SEAP expression): 0.01-1000 ng/ml, 24 hours.

Experiment [3] is described as follows: Immune response to Tox-All in HLA transgenic mice. Details: species or system HLA A2 and HLA A11 mice. As to conditions: mouse, in vivo. The source says:
The schematic diagrams of SAPN A11 (SEQ ID NO:27) in FIG. 17A 12e is similar to the schematic diagram of the more complex SAPN Tox-All (FIG. 17B). (FIG. 12f). […] Tox-All contains CD8 T cell eliciting epitopes by binding to HLA All, A2, and B7, PADRE a universal CD4 T cell eliciting epitope, protein domains that can elicit antibody (data not shown). Tox-All has the same scaffold flagellin that is shown for SAPN A11. […] Additional CD8 peptides that bind to other HLA molecules to broaden population coverage and CD4 peptides can be added in this complex SAPN. Additional proteins that elicit B cells can also be included in the SAPN. This allows us to tailor an immune response for each component of the immune system we wish to stimulate. The methods and approaches are those described for the A11 SAPN.

Where two headings read alike, the source gives them in different places.

T1 sequence (O60602 21-858): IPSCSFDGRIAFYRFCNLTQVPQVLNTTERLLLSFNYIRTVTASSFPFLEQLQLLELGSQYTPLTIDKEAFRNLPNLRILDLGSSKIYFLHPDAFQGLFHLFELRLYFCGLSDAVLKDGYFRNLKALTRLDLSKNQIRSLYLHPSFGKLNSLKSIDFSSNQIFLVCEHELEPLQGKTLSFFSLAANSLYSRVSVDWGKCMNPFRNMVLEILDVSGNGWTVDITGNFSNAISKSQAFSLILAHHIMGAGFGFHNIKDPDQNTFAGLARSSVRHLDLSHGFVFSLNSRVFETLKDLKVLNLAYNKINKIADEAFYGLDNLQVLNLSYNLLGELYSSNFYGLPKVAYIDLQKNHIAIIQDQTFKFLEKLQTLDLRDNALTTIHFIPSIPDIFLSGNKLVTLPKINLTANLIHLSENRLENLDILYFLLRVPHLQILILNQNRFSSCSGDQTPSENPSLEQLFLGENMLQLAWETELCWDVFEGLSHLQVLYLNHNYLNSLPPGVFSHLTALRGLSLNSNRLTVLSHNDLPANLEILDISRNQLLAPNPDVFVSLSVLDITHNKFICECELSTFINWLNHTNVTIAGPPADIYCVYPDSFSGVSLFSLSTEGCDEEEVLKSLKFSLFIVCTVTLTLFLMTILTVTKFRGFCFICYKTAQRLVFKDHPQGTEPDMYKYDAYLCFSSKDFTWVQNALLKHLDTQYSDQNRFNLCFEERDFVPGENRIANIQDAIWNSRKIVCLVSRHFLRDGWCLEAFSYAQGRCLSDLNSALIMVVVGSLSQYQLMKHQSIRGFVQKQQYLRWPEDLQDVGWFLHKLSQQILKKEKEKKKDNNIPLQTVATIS

As to STFWPCLLR [SAG2C13-21], in experiment [1], the IFN-γ-secreting spot formation result is “stimulated significant response”.
Consider “Concanavalin A [Con A, reference compound]”, for which the “IFN-γ ELISpot response, seropositive versus seronegative donors” value in experiment [1] (PBMC of 3 seropositive and 3 seronegative HLA-A03 individuals) is “response of PBMC from both seronegative and seropositive donors”.
Consider SSAYVFSVK [SRS52A250-258], for which the IFN-γ-secreting spot formation entry in experiment [1] was “stimulated significant response”.
Consider AVVSLLRLLK [GRA589-98], for which the IFN-γ-secreting spot formation entry in experiment [1] is on record as “stimulated significant response”.

B1: CD8-SAPN: self-assembling protein nanoparticle with five CD8+ epitopes and PADRE inserted into flagellin (protein)
chain: MGDKHHHHHHHHHHKDGSDKGSWEEWNARWDEWENDWNDWREDWQAWRDDWARWRATWMGGRLLSRLERLERRNEELRRLLQLIRHENRMVLQFVRALSMQNAELERRLEELARGMAQVINTNSLSLLTQNNLNRSQSALGTAIERLSSGLRINSARDDAAGQAIANRFTANIRGLTQASRNANDGISIAQTTEGALNEINNNLQRVRELAVQSANSTNSQSDLDSIQAEITQRLNEIDRVSGQTQFNGVRVLAQDNTLTIQVGANDGETIDIDLRQINSQTLGLDQLNVQQEYESDDAVVSLLRLLKNAMLTAFFLRNAAAKSFKDILPKKAAASSAYVFSVKKAAAKFVAAWTLKAAAKSTFWPCLLRDSDSDTENPLQRIDAALAQVDALRSDLGAVQNRFNSAITNLGNTVNNLSEARSRIEDSDYATEVSNMSRAQILQQAGTSVLAQANQVPQNVLSLLR
modifications: (1)..(14) optionally absent
As for B1, the “TLR5 activity (SEAP expression)” value was “significantly enhanced” in experiment [2] and “good stimulation” in experiment [2] (listed as SAPN).

B2: Tox-All: SAPN with HLA A11, A2 and B7 CD8 epitopes, PADRE, antibody-eliciting domains and flagellin (protein)
chain: MGDDHHHHHHHHHHWFMGVLVNSLQDITMGSLFFVQDFMIVSISLVQDGLAAAVVAVQDLPQFATAATRDSPASGRYIQQMLDQRCQEIAAELCQSGLRKMCVPSSRIVARNAVGITHQNTLQWRCFDTASLLESNQENNGVNCVDDCGHTIPCPGGVHRQNSNHATRHEILSKLVEEGVQRFCSPYQASANKYCNDKFPGTIARRSKGFGNNVEVAWRCYEKASLLYSVYAECASNCGTTWYCPGGRRGTSTELDKRHYTEEEGIRQAIGSVDSPCSEVEVCLPKDENPPLCLDESGQISRGSWEEWNARWDEWENDWNDWREDWQAWRDDWARWRATWMGGRLLSRLERLERRNEELRRLLQLIRHENRMVLQFVRALSMQNAELERRLEELARGMAQVINTNSLSLLTQNNLNRSQSALGTAIERLSSGLRINSARDDAAGQAIANRFTANIRGLTQASRNANDGISIAQTTEGALNEINNNLQRVRELAVQSANSTNSQSDLDSIQAEITQRLNEIDRVSGQTQFNGVRVLAQDNTLTIQVGANDGETIDIDLRQINSQTLGLDQLNVQQEYESDDAVVSLLRLLKNAMLTAFFLRNAAAKSFKDILPKKAAASSAYVFSVKKAAAKFVAAWTLKAAAKSTFWPCLLRDSDSDTENPLQRIDAALAQVDALRSDLGAVQNRFNSAITNLGNTVNNLSEARSRIEDSDYATEVSNMSRAQILQQAGTSVLAQANQVPQNVLSLLR
modifications: (1)..(14) optionally absent
For the molecule B2, the TLR5 stimulation result in experiment [2] (data not shown) was “stimulates TLR5”. Also, in experiment [3], the immune response result was “stimulates an immune response”.
